Laboratory results: patent publication US9539284B2 (GLOBOASIA, LLC, priority 2006, dated 2017)
“And” between values parts separate entries of the source, which are not always exact repeats. Equal entries are not always repeated. Where two headings read alike, the source gives them in different places.

How the values were obtained:
[1] = Fe3+ content per 500 mg compound (selection criterion 3); type: physicochemical
Description: 3. Appropriate equivalence of ferric ion per gram of compound. The potential ferric compound should contain enough ferric ions to effectively bind with dietary phosphate.

[2] = cited from earlier work
[3] = Harvey et al. 1998; cited from earlier work

Row | Molecule | Fe^3+ content per 500 mg compound ([1]; per 500 mg compound, unit mg) | pKa of anionic group [2] | other results
1 | CCCCC(CC)C(=O)[O-].CCCCC(CC)C(=O)[O-].CCCCC(CC)C(=O)[O-].[Fe+3] (stereo not drawn) [ferric octoate] | 58 mg |  | 
2 | CC(=O)[O-].CC(=O)[O-].CC(=O)[O-].[Fe+3] [ferric acetate] |  |  | Fe^3+ content per 500 mg compound [1]: 120 mg
3 | NCC(=O)[O-].NCC(=O)[O-].NCC(=O)[O-].[Fe+3] [ferric triglycinate] |  | pKa = 2.35 | Fe^3+ content per 500 mg compound [1]: 100 mg
4 | O=C([O-])CN(CCO)CCN(CC(=O)[O-])CC(=O)[O-].[Fe+3] [ferric HEDTA] | 85 mg |  | 
5 | ferric histidinate | 54 mg |  | 
6 | O=C([O-])C(=O)[O-].O=C([O-])C(=O)[O-].O=C([O-])C(=O)[O-].[Fe+3].[Fe+3] [ferric oxalate] | 142 mg | pKa = 1.25 | 
7 | CC(=O)/C=C(/C)[O-].CC(=O)/C=C(/C)[O-].CC(=O)/C=C(/C)[O-].[Fe+3] [ferric acetylacetonate] | 78 mg |  | 
8 | ferric gluconate | 44 mg |  | 
9 | ferric tartrate | 56 mg and 100 mg |  | pKa of anionic group, pKa1 ([2]; first pKa): pKa1 = 2.98; pKa of anionic group, pKa2 ([2]; second pKa): pKa2 = 4.34
10 | ferric citrate [reference compound] | 114 mg | pKa = 6.4 | 
11 | C[N+](C)(C)CCO.O=C([O-])CC(O)(CC(=O)[O-])C(=O)[O-].[Fe+3] [ferric choline citrate] |  |  | Fe^3+ content per 500 mg compound [1]: 79 mg
12 | O=C[O-].O=C[O-].O=C[O-].[Fe+3] [ferric formate] |  | pKa = 3.75 | Fe^3+ content per 500 mg compound [1]: 147 mg
13 | ferric oleate | 31 mg |  | 
14 | ferric ascorbate | 121 mg | pKa = 4.04 | 
15 | O=C([O-])CC(O)C(=O)[O-].O=C([O-])CC(O)C(=O)[O-].O=C([O-])CC(O)C(=O)[O-].[Fe+3].[Fe+3] (stereo not drawn) [ferric malate] | 110 mg | pKa = 3.4 | 
16 | O=C([O-])CN(CCN(CC(=O)[O-])CC(=O)O)CC(=O)[O-].[Fe+3] [ferric EDTA] | 81 mg |  | 
17 | Cc1occc(=O)c1[O-].Cc1occc(=O)c1[O-].Cc1occc(=O)c1[O-].[Fe+3] [ferric trimaltol] | 65 mg |  | correcting iron deficiency [3]: capable of correcting iron deficiency
18 | O=C([O-])[O-].O=C([O-])[O-].O=C([O-])[O-].[Fe+3].[Fe+3] [ferric carbonate] |  | 10.3 | Fe^3+ content per 500 mg compound [1]: 191 mg
19 | ferric aspartate | 62 mg | pKa = 1.99 | 
20 | ferric picolinate | 66 mg |  | 
21 | O=C([O-])/C=C/C(=O)[O-].O=C([O-])/C=C/C(=O)[O-].O=C([O-])/C=C/C(=O)[O-].[Fe+3].[Fe+3] [ferric fumarate] | 125 mg | pKa = 3.02 | 
